Experiments:
Assay type in all cases: biochemical
KDM4C (JMJD2C) = biological target: T1, KDM4C (JMJD2C) (Homo sapiens, UniProt Q9H3R0); assay: Histone lysine demethylase AlphaLISA assay, KDM4C; conditions: in vitro enzyme, read-out: KDM4C IC50 (HDME Inhibition)
T1 construct: 1-349; host or cells: E. coli
T1 sequence (Q9H3R0 1-349): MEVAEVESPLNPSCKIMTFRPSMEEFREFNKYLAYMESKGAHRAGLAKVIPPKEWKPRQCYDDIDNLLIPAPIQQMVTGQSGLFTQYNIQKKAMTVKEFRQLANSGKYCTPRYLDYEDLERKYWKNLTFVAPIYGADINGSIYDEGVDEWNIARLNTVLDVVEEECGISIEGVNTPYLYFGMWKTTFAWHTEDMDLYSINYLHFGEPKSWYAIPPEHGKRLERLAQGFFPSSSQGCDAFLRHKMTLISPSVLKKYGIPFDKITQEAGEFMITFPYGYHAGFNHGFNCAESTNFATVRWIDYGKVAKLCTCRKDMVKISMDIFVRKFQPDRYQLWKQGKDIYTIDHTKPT
Procedure: Histone lysine demethylase AlphaLISA assays are performed to determine IC50 values. […] Assays are performed analogously to the protocol described by PerkinElmer (Roy et al. PerkinElmer Technical Note: AlphaLISA #12, April 2011).
Assays are performed analogously to the protocol described by PerkinElmer (Roy et al. PerkinElmer Technical Note: AlphaLISA #12, April 2011).
Enzymes (final assay concentration 0.1-2.5 nM) are dissolved in enzyme buffer and incubated for 10 min before 5 μL is added to 5 μL 3% DMSO solutions of compounds in enzyme buffer, incubated for another 10 minutes, before 5 μL substrate solution is added and the reaction mixture is incubated at room temperature. 10 μL acceptor beads, suspended Epigenetic Buffer (Perkin Elmer AL008) from stock, are added and the suspension is incubated in the dark at room temperature, before 10 μL suspension of streptavidin donor beads (Perkin Elmer 6760002) in Epigenetic Buffer is added. After incubation at room temperature in the dark the plates are read.
Substrate solution: Substrate (final assay concentration 50-200 nM), 50 mM Hepes (pH 7.4-8.0), 0.003% Tween-20, 0.1% BS, 25 μM L-Asc, 10 μM α-KG. Enzyme Buffer: 50 mM Hepes (pH 7.4-8.0), 0.003% Tween-20, 0.1% BSA; 5 μM (NH4)2Fe(SO4)2

KDM2B (FBXL10) = biological target: T2, KDM2B (FBXL10) (Homo sapiens, UniProt Q8NHM5); assay: Histone lysine demethylase AlphaLISA assay, KDM2B; conditions: in vitro enzyme, read-out: KDM2B IC50 (HDME Inhibition)
T2 construct: 1-650; purchased BPS Bioscience, US; host or cells: Bac (baculovirus/insect cells)
T2 sequence (Q8NHM5 1-650): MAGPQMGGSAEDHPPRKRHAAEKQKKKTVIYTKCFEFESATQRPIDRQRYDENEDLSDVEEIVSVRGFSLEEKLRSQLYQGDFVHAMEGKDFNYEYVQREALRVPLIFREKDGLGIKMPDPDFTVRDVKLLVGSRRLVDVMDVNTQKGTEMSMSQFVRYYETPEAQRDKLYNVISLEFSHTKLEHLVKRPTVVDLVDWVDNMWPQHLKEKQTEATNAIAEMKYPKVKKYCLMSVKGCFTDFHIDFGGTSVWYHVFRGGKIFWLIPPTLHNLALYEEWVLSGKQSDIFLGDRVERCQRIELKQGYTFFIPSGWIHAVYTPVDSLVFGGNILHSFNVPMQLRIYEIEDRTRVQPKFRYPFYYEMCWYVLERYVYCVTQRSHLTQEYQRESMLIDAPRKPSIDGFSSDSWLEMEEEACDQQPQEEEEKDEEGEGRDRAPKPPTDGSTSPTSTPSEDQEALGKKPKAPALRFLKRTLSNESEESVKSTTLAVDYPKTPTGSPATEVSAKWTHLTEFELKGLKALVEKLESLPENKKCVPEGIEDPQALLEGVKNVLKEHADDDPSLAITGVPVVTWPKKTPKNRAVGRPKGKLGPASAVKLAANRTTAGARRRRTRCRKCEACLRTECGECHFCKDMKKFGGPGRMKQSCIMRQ

KDM5B (PLU-1) = biological target: T3, KDM5B (PLU-1) (Homo sapiens, UniProt Q9UGL1); assay: Histone lysine demethylase AlphaLISA assay, KDM5B; conditions: in vitro enzyme, read-out: KDM5B IC50 (HDME Inhibition)
T3 construct: 1-809; host or cells: E. coli
T3 sequence (Q9UGL1 1-809): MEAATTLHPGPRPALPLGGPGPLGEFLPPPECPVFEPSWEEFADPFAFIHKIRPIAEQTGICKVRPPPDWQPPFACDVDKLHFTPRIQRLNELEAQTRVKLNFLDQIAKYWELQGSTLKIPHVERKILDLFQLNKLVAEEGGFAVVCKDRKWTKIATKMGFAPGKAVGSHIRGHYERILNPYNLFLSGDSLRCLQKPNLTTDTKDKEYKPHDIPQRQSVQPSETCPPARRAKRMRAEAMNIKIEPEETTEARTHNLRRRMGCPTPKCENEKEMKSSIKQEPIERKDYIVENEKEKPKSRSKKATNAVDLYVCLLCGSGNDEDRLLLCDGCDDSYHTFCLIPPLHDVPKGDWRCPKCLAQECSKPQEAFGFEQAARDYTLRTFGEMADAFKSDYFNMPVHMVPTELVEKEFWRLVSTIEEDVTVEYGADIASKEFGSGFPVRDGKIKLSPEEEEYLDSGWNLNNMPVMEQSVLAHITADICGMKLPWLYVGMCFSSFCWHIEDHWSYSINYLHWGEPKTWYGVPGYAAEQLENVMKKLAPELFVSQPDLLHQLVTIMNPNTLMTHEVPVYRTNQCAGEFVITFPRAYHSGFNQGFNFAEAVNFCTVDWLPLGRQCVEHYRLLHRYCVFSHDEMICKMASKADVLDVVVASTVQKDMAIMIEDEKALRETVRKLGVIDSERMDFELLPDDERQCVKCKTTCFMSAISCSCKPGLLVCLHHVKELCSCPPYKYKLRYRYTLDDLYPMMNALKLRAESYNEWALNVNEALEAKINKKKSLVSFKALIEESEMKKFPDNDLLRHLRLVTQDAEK

PHF8 (KDM7) = PHF8 (KDM7) (Homo sapiens, UniProt Q9UPP1); assay: Histone lysine demethylase AlphaLISA assay, PHF8; conditions: in vitro enzyme, read-out: PHF8 IC50 (HDME Inhibition)
KDM6A (UTX) = biological target: T4, KDM6A (UTX) (Homo sapiens, UniProt O15550); assay: Histone lysine demethylase AlphaLISA assay, KDM6A; conditions: in vitro enzyme, read-out: KDM6A IC50 (HDME Inhibition)
T4 construct: 919-1401; host or cells: E. coli
T4 sequence (O15550 919-1401): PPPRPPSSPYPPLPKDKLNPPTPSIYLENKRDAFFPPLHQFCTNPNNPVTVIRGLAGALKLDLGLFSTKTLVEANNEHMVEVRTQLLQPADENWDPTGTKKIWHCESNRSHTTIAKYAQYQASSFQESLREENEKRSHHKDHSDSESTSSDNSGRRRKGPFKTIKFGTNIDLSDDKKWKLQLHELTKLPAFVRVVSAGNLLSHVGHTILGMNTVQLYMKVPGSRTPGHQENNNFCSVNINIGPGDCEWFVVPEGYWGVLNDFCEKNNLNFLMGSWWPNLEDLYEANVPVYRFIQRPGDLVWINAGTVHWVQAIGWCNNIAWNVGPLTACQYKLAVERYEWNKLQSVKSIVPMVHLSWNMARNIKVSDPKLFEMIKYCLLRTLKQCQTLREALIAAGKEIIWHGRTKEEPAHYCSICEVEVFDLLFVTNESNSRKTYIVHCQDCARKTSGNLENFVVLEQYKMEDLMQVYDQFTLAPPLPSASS

PHF8 (KDM7), sequence (Q9UPP1 whole entry): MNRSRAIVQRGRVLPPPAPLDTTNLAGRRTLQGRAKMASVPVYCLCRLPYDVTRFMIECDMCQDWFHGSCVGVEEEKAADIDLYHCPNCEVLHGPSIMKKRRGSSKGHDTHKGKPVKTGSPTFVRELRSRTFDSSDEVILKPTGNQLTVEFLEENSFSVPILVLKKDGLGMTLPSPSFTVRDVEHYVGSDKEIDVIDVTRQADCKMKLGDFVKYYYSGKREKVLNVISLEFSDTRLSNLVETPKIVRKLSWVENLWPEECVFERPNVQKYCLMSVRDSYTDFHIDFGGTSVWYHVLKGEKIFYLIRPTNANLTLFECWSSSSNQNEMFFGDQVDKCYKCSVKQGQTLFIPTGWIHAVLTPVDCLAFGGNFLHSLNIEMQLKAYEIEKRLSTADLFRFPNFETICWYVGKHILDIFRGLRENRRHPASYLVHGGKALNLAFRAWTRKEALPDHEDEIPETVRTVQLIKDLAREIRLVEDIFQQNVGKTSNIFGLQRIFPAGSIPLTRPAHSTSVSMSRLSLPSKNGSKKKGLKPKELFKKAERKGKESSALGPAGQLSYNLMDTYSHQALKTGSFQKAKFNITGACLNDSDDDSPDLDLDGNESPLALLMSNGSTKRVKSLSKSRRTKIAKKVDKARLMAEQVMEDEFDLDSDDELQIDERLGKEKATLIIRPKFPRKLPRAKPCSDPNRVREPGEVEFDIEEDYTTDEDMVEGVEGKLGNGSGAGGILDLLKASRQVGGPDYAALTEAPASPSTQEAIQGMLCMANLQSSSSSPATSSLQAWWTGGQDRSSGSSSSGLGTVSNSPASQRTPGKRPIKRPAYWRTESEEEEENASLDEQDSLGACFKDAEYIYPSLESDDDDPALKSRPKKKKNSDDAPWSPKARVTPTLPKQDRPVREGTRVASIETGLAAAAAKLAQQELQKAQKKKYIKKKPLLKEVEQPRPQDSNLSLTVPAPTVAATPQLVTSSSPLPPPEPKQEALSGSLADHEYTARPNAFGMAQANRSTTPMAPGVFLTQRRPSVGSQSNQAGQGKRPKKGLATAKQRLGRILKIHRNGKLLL

| SMILES | IC50 (KDM4C (JMJD2C)) | IC50 (KDM2B (FBXL10)) | IC50 (KDM5B (PLU-1)) | IC50 (PHF8 (KDM7)) | IC50 (KDM6A (UTX)) |
| --- | --- | --- | --- | --- | --- |
| CC(NCc1nccs1)c1cc(C(=O)O)ccn1 (stereo not shown) [Compound 41, 2-{1-[(1,3-thiazol-2-ylmethyl)amino]ethyl} pyridine-4-carboxylic acid] | 250 to 2500 nM | 250 to 2500 nM | 250 to 2500 nM | – | – |
| CCN1CCC[C@@H](CNCc2cc(C(=O)O)ccn2)C1=O [Compound 104, 2-[({[(3S)-1-ethyl-2-oxopiperidin-3-yl]methyl}amino)methyl]pyridine-4-carboxylic acid] | 250 to 2500 nM | – | < 250 nM | 250 to 2500 nM | > 2500 nM |
| CCNC(=O)C[C@@H]1CCCCN1Cc1cc(C(=O)O)ccn1 [Compound 71, 2-{[(2S)-2-[(ethylcarbamoyl)methyl]piperidin-1-yl]methyl}pyridine-4-carboxylic acid] | > 2500 nM | – | > 2500 nM | – | > 2500 nM |
| C=CCN(CC=C)C(=O)[C@H](CC(=O)NCCCN(C)C)NCc1cc(C(=O)O)ccn1 [Compound 10, 2-({[(1S)-1-[bis(prop-2-en-1-yl)carbamoyl]-2-{[3-(dimethylamino)propyl]carbamoyl}ethyl]amino}methyl)pyridine-4-carboxylic acid] | > 2500 nM | > 2500 nM | < 250 nM | – | – |
| CC(NCC(=O)N1CCCCC1)c1cc(C(=O)O)ccn1 (stereo not shown) [Compound 48, 2-(1-{[2-oxo-2-(piperidin-1-yl)ethyl]amino}ethyl) pyridine-4-carboxylic acid] | 250 to 2500 nM | 250 to 2500 nM | 250 to 2500 nM | – | – |
| CSCC(NCC(=O)N1CCCCC1)c1cc(C(=O)O)ccn1 (stereo not shown) [Compound 42, 2-[2-(methylsulfanyl)-1-{[2-oxo-2-(piperidin-1-yl)ethyl]amino}ethyl] pyridine-4-carboxylic acid] | > 2500 nM | – | > 2500 nM | – | > 2500 nM |
| O=C(O)c1ccnc(CN2CCCn3ccnc3C2)c1 [Compound 53, 2-{5H,6H,7H,8H,9H-imidazo[1,2-a][1,4]diazepin-8-ylmethyl}pyridine-4-carboxylic acid] | 250 to 2500 nM | – | – | > 2500 nM | > 2500 nM |
| COc1ccc([C@@H](C)N2CC[C@H](CNCc3cc(C(=O)O)ccn3)C2=O)cc1 [Compound 79, 2-[({[(3R)-1-[(1R)-1-(4-methoxyphenyl)ethyl]-2-oxopyrrolidin-3-yl]methyl}amino)methyl]pyridine-4-carboxylic acid] | < 250 nM | – | < 250 nM | – | 250 to 2500 nM |
| C=CCN(CC=C)C(=O)[C@@H](CCCCN(CCC)C(=O)OC(C)(C)C)NCc1cc(C(=O)O)ccn1 [Compound 4, 2-({[(1R)-1-[bis(prop-2-en-1-yl)carbamoyl]-5-{[(tert-butoxy)carbonyl](propyl)amino}pentyl]amino}methyl)pyridine-4-carboxylic acid] | > 2500 nM | 250 to 2500 nM | > 2500 nM | – | – |
| C=CCN(CC=C)C(=O)[C@H](CCCCN(C)C(C)=O)NCc1cc(C(=O)O)ccn1 [Compound 21, 2-({[(1S)-1-[bis(prop-2-en-1-yl)carbamoyl]-5-(N-methylacetamido)pentyl]amino}methyl)pyri-dine-4-carboxylic acid] | > 2500 nM | – | 250 to 2500 nM | – | > 2500 nM |
| O=C(O)c1cnnc(CNCC(=O)N2CCCCC2)c1 [Compound 26, 6-({[2-oxo-2-(piperidin-1-yl)ethyl]amino}methyl) pyridazine-4-carboxylic acid] | < 250 nM | – | < 250 nM | – | > 2500 nM |
| O=C(O)c1ccnc(CNCc2nccn2C/C=C/c2ccccc2)c1 [Compound 13, 2-{[({1-[(2E)-3-phenylprop-2-en-1-yl]-1H-imidazol-2-yl}methyl)amino]methyl}pyridine-4-carboxylic acid] | > 2500 nM | – | < 250 nM | – | > 2500 nM |
| O=C(O)c1ccnc(CN2CCCCn3ccnc3C2)c1 [Compound 51, 2-{5H,6H,7H,8H,9H,10H-imidazo[1,2-a][1,4]diazocin-9-ylmethyl}pyridine-4-carboxylic acid] | < 250 nM | – | – | 250 to 2500 nM | > 2500 nM |
| C[C@H](c1ccccc1)N1CC[C@H](CNCc2cc(C(=O)O)ccn2)C1=O [Compound 82, 2-[({[(3R)-2-oxo-1-[(1R)-1-phenylethyl]pyrrolidin-3-yl]methyl}amino)methyl]pyridine-4-carboxylic acid] | < 250 nM | – | < 250 nM | – | 250 to 2500 nM |
| O=C(O)c1ccnc(CNC2CCCc3cccnc32)c1 (stereo not shown) [Compound 94, 2-{[(5,6,7,8-tetrahydroquinolin-8-yl)amino]methyl} pyridine-4-carboxylic acid] | > 2500 nM | – | > 2500 nM | – | > 2500 nM |
| CC(C)C[C@H](CO)NC(C)c1cc(C(=O)O)ccn1 (stereo partly drawn) [Compound 33, 2-(1-{[(2R)-1-hydroxy-4-methylpentan-2-yl]amino}ethyl)pyridine-4-carboxylic acid] | > 2500 nM | – | 250 to 2500 nM | – | > 2500 nM |
| O=C(O)c1ccnc(CNC2CCn3ccnc32)c1 (stereo not shown) [Compound 93, 2-[({5H,6H,7H-pyrrolo[1,2-a]imidazol-7-yl}amino)methyl]pyri-dine-4-carboxylic acid] | 250 to 2500 nM | – | < 250 nM | – | > 2500 nM |
| CC(N[C@@H](C)C(=O)NCc1ccncc1)c1cc(C(=O)O)ccn1 (stereo partly drawn) [Compound 15, 2-(1-{[(1S)-1-[(pyridin-4-ylmethyl)carbamoyl]ethyl]amino}ethyl)pyri-dine-4-carboxylic acid] | > 2500 nM | – | > 2500 nM | – | > 2500 nM |
| Cc1cn2c(n1)CCN(Cc1cc(C(=O)O)ccn1)CCC2 [Compound 67, 2-({2-methyl-5H,6H,7H,8H,9H,10H-imidazo[1,2-a][1,5]diazocin-8-yl}methyl)pyridine-4-carboxylic acid] | > 2500 nM | – | > 2500 nM | – | > 2500 nM |

— US20170369444A1, “INHIBITORS OF HISTONE DEMETHYLASES” (Gilead Sciences, Inc., priority 2014, published 2017)
